# Results: PubChem BioAssay AID652143 (Broad Institute, 2013)
# Records with an inconclusive call do not appear. Calls of active or inactive are those of the source. How the calls were made is not given here.
# Tests used:
# Assay in all cases: caspase 3/7 activation in multiple cell lines – Caspase-Glo 3/7 luminescence, multiple timepoints, mechanism study for HRAS target identification project, profiling panel (AID 652143)
# LOX-IMVI = details: Cell line panel, caspase 3/7 luminescence, 1/6/24 h, caspase 3/7 AC40, timepoint 3
# SNB-19 = details: Cell line panel, caspase 3/7 luminescence, 1/6/24 h
# U-251 = details: Cell line panel, caspase 3/7 luminescence, 1/6/24 h
# HT-29 = details: Cell line panel, caspase 3/7 luminescence, 1/6/24 h, caspase 3/7 AC40, timepoint 2
# SR = details: Cell line panel, caspase 3/7 luminescence, 1/6/24 h
structure (smiles),measurement,setting,value
CCC(=O)N(c1ccc(OC)c(Cl)c1)C(C(=O)NCCc1ccccc1)c1cccs1 (stereo not given),AC40,LOX-IMVI,> 35 µM
same,outcome,SNB-19,inactive
same,outcome,U-251,inactive
Cc1onc(C(=O)N2CCN(C(c3ccc(Cl)cc3)c3ccc(Cl)cc3)CC2)c1[N+](=O)[O-],outcome,SNB-19,inactive
O=C(NCCOCCOCCOc1ccc(N(C(=O)CCl)C(C(=O)NCCc2ccccc2)c2cccs2)cc1Cl)c1ccc(COC2C#CCCCCC2)cc1 (stereo not given),AC40,HT-29,> 35 µM
COc1ccc(N(C(=O)CCl)C(C(=O)NCCc2ccccc2)c2cccs2)cc1Cl (stereo not given),AC40,SR,22.2 µM
same,AC40,"SR; caspase 3/7 AC40, timepoint 2",0.177 µM
same,AC40,"SR; caspase 3/7 AC40, timepoint 3",0.551 µM
same,AC40,U-251,14.7 µM
same,AC40,"U-251; caspase 3/7 AC40, timepoint 2",1.45 µM
same,AC40,"U-251; caspase 3/7 AC40, timepoint 3",0.948 µM
Cc1onc(C(=O)N2CCN(C(c3ccc(Cl)cc3)c3ccc(OCCOCCOCCNC(=O)OC(C)(C)C)cc3)CC2)c1[N+](=O)[O-] (stereo not given),outcome,SNB-19,inactive
CO[C@H]1C[C@@H]2CC[C@@H](C)[C@@](O)(O2)C(=O)C(=O)N2CCCC[C@H]2C(=O)O[C@H]([C@H](C)C[C@@H]2CC[C@@H](O)[C@H](OC)C2)CC(=O)[C@H](C)/C=C(\C)[C@@H](O)[C@@H](OC)C(=O)[C@H](C)C[C@H](C)/C=C/C=C/C=C/1C,outcome,SNB-19,inactive
same,AC40,"SNB-19; caspase 3/7 AC40, timepoint 2",35 µM
CC(C)(C)OC(=O)NCCOCCOCCOc1ccc(N(C(=O)CCl)C(C(=O)NCCc2ccccc2)c2cccs2)cc1Cl (stereo not given),AC40,SNB-19,> 35 µM (inactive)
